In patent US20030206953A1, “Aggregates of spherical multivalent metal alginate microparticles and methods of making them” (priority 1997, published 2003):
In brackets after ≈: the same amount, converted by molar mass.

Legend:
[1] = physchem; conditions: 20 °C, water, thermodynamic from solid
Experimental: (§1) As used herein, the term “solubility” in accordance with the Japanese Pharmacopoeia (the 13th Amendment) refers to the degree of dissolution of a medicament in a solvent within 30 minutes when 1 g of the medicament is added to the solvent and mixing them with vigorous shaking at intervals of 5 minutes at 20° C.±5° C. In the present specification, the solubility is evaluated in accordance with this method. When the amount (ml) of water required to dissolve 1 g of a medicament is 30 ml or more, the solubility of the medicament represents the grades of “slightly soluble” or “hardly soluble”.

[2] = Solubility in water per Japanese Pharmacopoeia (13th Amendment); conditions: 20 °C, thermodynamic from solid
Experimental: as §1

[3] = Dissolution test, paddle method, second solution (artificial intestinal juice, pH 6.8); format: physicochemical; conditions: artificial intestinal juice (second solution, pH 6.8); within two hours; FIG. 3
From the text: As used herein, the term “artificial intestinal juice (the second solution, pH 6.8)” refers to a phosphate buffer of pH 6.8 as described in the Japanese Pharmacopoeia (the 13th Amendment), the section of dissolution test, the second method (paddle method). As used herein, the term “dissolution rate” refers to a value given by dividing the actual elution concentration of a slightly soluble medicament by the calculated elution concentration and expressing the resultant value as a percent. Here, the term “calculated elution concentration” refers to the concentration given when hypothesizing that the entire slightly soluble medicament added to the second solution is dissolved. For example, the calculated elution concentration of a slightly soluble medicament given when 5 g of the medicament is added to 500 ml of the second solution is 10 mg/ml. In this case, when the actual elution concentration is 5 mg/ml, the dissolution rate is 50%.
In general, the dissolution rate of a slightly soluble medicament by itself is slow in the artificial intestinal juice, and the saturated dissolution amount is small. Therefore, the saturated dissolution concentration tends to be smaller than the calculated concentration. […]

Compound	solubility at 30 min [1] [µg/mL]	solubility at 30 min [2] [µg/mL]	dissolution rate [3]
CC(=O)Nc1ccc(O)cc1 [Acetaminophen, acetaminophen]	13100 (≈ 86.7 mM)	–	–
CC(=O)Oc1ccccc1C(=O)O [Aspirin, aspirin]	–	3630 (≈ 20.1 mM)	–
CCOc1ccccc1C(N)=O [Ethenzamide]	–	< 100	–
COc1ccc2c(c1)c(CC(=O)O)c(C)n2C(=O)c1ccc(Cl)cc1 [Indomethacin, indomethacin]	< 100	–	less than 40%
